# Measurements published in US7452680B2, “MCT1 transporters expressed in blood brain barrier cells” (XenoPort, Inc., priority 2004, dated 2008).
# What was measured:
# MCT1 [1] = biological target: T1, MCT1 (Homo sapiens, UniProt P53985); conditions: cited from earlier work
# T1 sequence (P53985 1-500): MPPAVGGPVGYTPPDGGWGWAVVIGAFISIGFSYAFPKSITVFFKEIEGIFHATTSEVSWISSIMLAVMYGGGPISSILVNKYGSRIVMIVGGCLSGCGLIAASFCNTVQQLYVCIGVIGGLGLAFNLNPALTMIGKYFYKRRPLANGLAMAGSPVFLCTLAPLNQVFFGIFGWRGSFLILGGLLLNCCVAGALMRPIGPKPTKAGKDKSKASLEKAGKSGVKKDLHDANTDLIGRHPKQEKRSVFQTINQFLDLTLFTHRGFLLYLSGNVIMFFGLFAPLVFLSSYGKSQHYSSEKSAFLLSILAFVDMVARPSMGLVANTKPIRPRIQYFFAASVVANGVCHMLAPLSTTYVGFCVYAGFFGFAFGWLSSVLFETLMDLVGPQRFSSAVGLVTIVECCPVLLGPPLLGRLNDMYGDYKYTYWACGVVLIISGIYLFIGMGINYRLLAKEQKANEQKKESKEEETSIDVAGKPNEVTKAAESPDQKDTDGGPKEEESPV
# T1 sequence (P35613 140-385 partner limits assumed): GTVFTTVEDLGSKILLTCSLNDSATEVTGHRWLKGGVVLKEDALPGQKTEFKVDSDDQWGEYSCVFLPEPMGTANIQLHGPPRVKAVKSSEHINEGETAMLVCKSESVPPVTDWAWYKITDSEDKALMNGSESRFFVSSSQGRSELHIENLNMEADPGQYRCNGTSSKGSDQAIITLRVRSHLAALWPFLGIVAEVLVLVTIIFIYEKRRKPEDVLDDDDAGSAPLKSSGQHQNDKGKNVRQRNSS
# MCT1 [2] = biological target: T1, MCT1; assay: Inducible uptake by LLCPK-TREx cell line containing pTREx-hMCT1 (FIG. 10); assay type: cell-based; set-up: expressed in transfected cells; host or cells: LLCPK-TREx cells; conditions: vs non-tet treated (un-induced) or parental LLCPK cells; pH 6.8, 2 minutes
# Procedure: FIG. 10 depicts the results of an uptake experiment showing inducible uptake of (A) ^14C-lactate and (B) thiopheneglyoxylic acid by the LLCPK-TREx cell line containing plasmid pTREx-hMCT1. Uptake of ^14C-lactate was measured as follows: radiolabeled ^14C-lactic acid (˜50,000 cpm/well) was added to each well in triplicate. Experiments were performed in an MES-based saline buffer adjusted to pH 6.8. Plates were incubated at room temperature for 2 minutes. Excess radiolabeled substrate was removed and cells were washed three times with a 96-well plate washer with cold assay buffer. Scintillation fluid was added to each well, the plates were sealed and counted in a 96-well plate-based scintillation counter. Uptake of thiopheneglyoxylic acid was measured similarly to ^14C-lactate, except cells were washed and compound extracted with a 50% ethanol solution. Levels of extracted thiopheneglyoxylate were measured using mass spectroscopy as described above. Negative control values were determined by measuring the uptake into non-tet treated (un-induced) or parental LLCPK (constitutive) cells.
# [3] = biological target: T2, hMCT1-rCD147 fusion protein (Homo sapiens, UniProt P53985, D490E); assay: Competitive binding and uptake assay, inhibition of 14C-lactate uptake (FIG. 13); assay type: cell-based; set-up: rCD147 (rat CD147/basigin) fusion partner; expressed in transfected cells; conditions: cells expressing the fusion protein vs cells endogenously expressing hMCT1
# T2 sequence (P53985 with tags, fused parts or gaps D490E): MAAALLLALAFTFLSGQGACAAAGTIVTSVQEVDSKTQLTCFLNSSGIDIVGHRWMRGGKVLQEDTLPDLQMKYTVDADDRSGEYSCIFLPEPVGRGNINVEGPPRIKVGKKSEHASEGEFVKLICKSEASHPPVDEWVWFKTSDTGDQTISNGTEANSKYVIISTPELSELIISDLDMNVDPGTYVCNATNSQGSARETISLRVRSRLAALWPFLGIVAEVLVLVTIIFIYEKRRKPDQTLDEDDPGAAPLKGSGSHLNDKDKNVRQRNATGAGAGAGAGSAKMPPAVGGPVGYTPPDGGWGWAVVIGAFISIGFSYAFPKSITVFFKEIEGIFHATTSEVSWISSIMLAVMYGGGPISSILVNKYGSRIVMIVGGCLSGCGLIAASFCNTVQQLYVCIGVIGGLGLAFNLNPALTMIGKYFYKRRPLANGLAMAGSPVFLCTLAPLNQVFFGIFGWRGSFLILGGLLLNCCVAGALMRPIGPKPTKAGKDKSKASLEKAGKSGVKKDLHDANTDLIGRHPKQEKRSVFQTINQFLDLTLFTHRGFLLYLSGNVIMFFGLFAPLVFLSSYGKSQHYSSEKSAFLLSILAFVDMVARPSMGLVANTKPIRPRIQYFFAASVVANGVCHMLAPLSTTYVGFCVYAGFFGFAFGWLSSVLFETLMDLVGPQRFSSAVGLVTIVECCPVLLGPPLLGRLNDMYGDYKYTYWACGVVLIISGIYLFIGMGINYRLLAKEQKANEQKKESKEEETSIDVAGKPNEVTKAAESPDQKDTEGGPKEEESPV
# Procedure: To determine whether a compound interacts with the MCT1 transporter, a competition-binding assay was developed. This assay measures how different concentrations of a test compound block the uptake of a radiolabeled substrate such as lactate. The half-maximal inhibitory concentration (IC50) for inhibition of transport of a substrate by a test compound is an indication of the affinity of the test compound for the MCT1 transporter. Competition binding studies were performed as follows. HEK-PEAK cells were plated in 96-well plates at 100,000 cells/well and incubated at 37° C. for 24 hours. Radiolabeled ^14C-lactic acid (˜50,000 cpm/well) was added to each well in the presence and absence of various concentrations of unlabeled lactic acid in duplicate or triplicate. Competition experiments were performed in an MES-based saline buffer adjusted to pH 6.8. Plates were incubated at room temperature for 2 minutes. Excess radiolabeled substrate was removed and cells were washed three times with a 96-well plate washer with cold assay buffer. Scintillation fluid was added to each well, the plates were sealed and counted in a 96-well plate-based scintillation counter. Data were graphed and analyzed using non-linear regression analysis with Prism Software (GraphPad, Inc., San Diego, Calif.). Competition binding in HEK-PEAK cells is illustrated in FIG. 4B.
# To confirm the pharmacology of the hMCT1-rCD147 fusion proteins was the same as that of the unmodified version of hMCT1, the hMCT1-rCD147-expressing cells lines were tested in a competitive binding and uptake assay. Eight different MCT1 substrates were tested for their ability to inhibit the uptake of ^14C-lactate into isolated cell lines inducibly or constitutively expressing hMCT1-rCD147 fusion protein and into cells endogenously expressing hMCT1.
# [4] = biological target: T2, hMCT1-rCD147 fusion protein; assay: Uptake of tritiated GHB, cells expressing hMCT1-rCD147 fusion protein (FIG. 14); assay type: cell-based; set-up: rCD147 (rat CD147/basigin) fusion partner; expressed in transfected cells; host or cells: LLCPK-TREx cells (pTREx-hMCT1-rCD147 inducible, pMO-hMCT1-rCD147 constitutive); conditions: inducibly or constitutively expressing cells, compared with uninduced or control cells
# Procedure: (§1) To determine whether […] (GHB) is a substrate for MCT1, an uptake assay was performed using tritiated […].
# MCT1 [5] = biological target: T1, MCT1; assay: Uptake of tritiated GHB, cells over expressing MCT1 protein (FIG. 14); assay type: cell-based; set-up: expressed in transfected cells; host or cells: LLCPK-TREx cells; conditions: compared with control cells
# Procedure: as §1
# PgP = PgP (Homo sapiens, UniProt P08183); assay: Cellular transwell monolayer efflux assay, MDCK cells transfected with TREx-PgP (FIG. 8)
# Chain of PgP (P08183 whole entry): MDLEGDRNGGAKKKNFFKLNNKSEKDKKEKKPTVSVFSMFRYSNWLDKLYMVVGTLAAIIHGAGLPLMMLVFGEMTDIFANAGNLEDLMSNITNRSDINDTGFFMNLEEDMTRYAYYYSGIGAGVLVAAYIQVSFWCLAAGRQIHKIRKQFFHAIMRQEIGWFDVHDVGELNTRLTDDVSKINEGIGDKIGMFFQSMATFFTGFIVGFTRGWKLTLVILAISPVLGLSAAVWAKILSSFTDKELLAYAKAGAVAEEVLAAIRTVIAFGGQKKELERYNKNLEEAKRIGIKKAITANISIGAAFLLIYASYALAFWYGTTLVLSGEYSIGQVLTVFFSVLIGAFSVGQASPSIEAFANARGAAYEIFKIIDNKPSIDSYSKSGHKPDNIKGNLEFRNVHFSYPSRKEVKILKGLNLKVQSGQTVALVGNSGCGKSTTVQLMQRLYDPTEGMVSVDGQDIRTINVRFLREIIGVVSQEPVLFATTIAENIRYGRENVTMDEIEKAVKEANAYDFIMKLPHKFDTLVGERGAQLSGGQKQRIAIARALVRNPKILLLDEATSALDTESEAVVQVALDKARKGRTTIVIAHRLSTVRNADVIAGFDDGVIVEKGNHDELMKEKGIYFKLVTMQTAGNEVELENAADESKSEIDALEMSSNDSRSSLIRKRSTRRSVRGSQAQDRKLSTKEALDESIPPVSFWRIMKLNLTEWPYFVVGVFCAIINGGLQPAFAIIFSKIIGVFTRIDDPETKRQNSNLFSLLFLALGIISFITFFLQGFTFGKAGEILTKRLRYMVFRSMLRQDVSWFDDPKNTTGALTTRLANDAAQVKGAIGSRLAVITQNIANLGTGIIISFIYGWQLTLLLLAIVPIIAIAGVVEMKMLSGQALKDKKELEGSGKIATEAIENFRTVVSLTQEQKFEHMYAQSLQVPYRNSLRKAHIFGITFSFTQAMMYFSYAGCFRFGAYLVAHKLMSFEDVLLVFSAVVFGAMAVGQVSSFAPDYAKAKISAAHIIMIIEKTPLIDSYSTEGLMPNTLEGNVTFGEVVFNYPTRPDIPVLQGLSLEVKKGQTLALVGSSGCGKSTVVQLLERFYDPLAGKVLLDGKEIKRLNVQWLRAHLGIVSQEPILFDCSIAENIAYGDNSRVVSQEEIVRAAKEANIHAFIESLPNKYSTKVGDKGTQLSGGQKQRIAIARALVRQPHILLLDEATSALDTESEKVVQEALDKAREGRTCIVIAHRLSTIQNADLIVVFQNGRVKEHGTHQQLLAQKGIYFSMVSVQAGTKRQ
# Procedure: A third type of efflux transporter assay is the cellular transwell monolayer efflux assay. […] The cells form a polarized monolayer. The transwell dishes have apical and basolateral chambers that are separated by the filter membrane on which the polarized monolayer is situated. Assays are performed by placing a test compound in either the apical or basolateral chamber, followed by sampling the opposite chamber after a predetermined period of time such as 60-120 minutes and measuring the amount of the test compound. The test compound can be measured by methods such as radiolabel detection or LC-MS-MS analysis. Assays are performed in the presence and absence of an efflux transporter inhibitor or competitor. Efflux transporter inhibitors or competitors increase apical to basolateral transport and decrease basolateral to apical transport of compounds that are efflux transporter substrates. Apparent permeability (Papp) of test compounds is measured. […] Test compounds that generate ratios between 1.5 and 2.0 require additional testing to determine if they are efflux transporter substrates.
# MDCK cells transfected with the tetracycline-inducible TREx-PgP expression vector were seeded on polycarbonate filter membranes in transwell dishes and grown for 3-5 days, yielding a polarized monolayer with tight junctions between cells. […] The left set of bars depicts apical to basolateral transport, while the right set of bars depicts basolateral to apical transport.
# MCT1 [6] = biological target: T1, MCT1; assay: 14C-lactate uptake assay in HEK-TREx cells transfected with tet-MCT1 inducible construct; assay type: cell-based; set-up: expressed in transfected cells; conditions: tet-induced vs non-induced
# Procedure: Human MCT1 (hMCT1) is expressed at high levels in most mammalian cell lines. hMCT1 is a high capacity transporter, so low levels of hMCT1 expression may result in significant substrate transport. To control the level of hMCT expression, an inducible tet promoter-hMCT1 expression construct was prepared using the Gateway plasmid cloning system following manufacturers instructions (Invitrogen). The tet-MCT1 inducible construct was transfected into HEK-TREx cells using Fugene transfection following manufacturers instructions (Roche Biosciences). When the transfected cells were tested in an uptake assay, the amount of tetracycline-inducible MCT1 -mediated transport of ^14C-lactate was about 20% higher than the level of endogenous uptake seen in non-induced cells. The addition of an excess of unlabeled lactate competed with the uptake of ^14C-lactate.
# MCT1 [7] = biological target: T1, MCT1; assay: 14C-lactate uptake in Xenopus oocytes injected with MCT1 cRNA (FIG. 2); assay type: cell-based; set-up: expressed in transfected cells; host or cells: Xenopus oocytes injected with MCT1 cRNA; conditions: oocytes expressing MCT1 vs oocytes expressing MCT4 or noninjected control oocytes
# [8] = 2.5 nM 3H-vinblastine, in the presence of 250 μM verapamil
Compound,Reported Affinity for MCT1 (MCT1 [1]) [mM],affinity for the MCT1-rCD147 fusion protein compared with hMCT1 alone [3],also measured
O=C(O)C(=O)c1cccs1 [2-Thiophene glyoxylate],3,higher affinity,MCT1 substrate uptake upon induction with tetracycline (MCT1 [2]): significant increase
CCCC(=O)O [Butyric Acid],8,–,–
CC1(C)S[C@@H]2[C@H](NC(=O)C(C(=O)Oc3ccc4c(c3)CCC4)c3ccccc3)C(=O)N2[C@H]1C(=O)O (stereo partly drawn) [Carindicillin],>5,–,–
"CC(C)C[C@H](O)C(=O)O [Compound 2, L-alpha-hydroxy-isocaproic acid]",–,higher affinity,–
"O=C(O)c1ccccc1 [Compound 5, benzoic acid]",–,higher affinity,–
"O=C(O)Cc1ccccc1 [Compound 8, phenylacetic acid]",–,higher affinity,–
"CCC(O)C(=O)O (stereo not drawn) [GHB, α-hydroxybutyrate]",–,–,uptake of labeled GHB [4]: increased uptake; uptake of labeled GHB (MCT1 [5]): increased uptake
"CC(O)C(=O)O (stereo not drawn) [Lactic Acid, lactic acid]",2,higher affinity,–
"O=C(O)c1cccnc1 [Nicotinic Acid, nicotinic acid]",4,higher affinity,–
O=C(CCc1ccc(O)cc1)c1c(O)cc(O)cc1O [Phloretin],0.2,–,–
CC(=O)C(=O)O [Pyruvic Acid],1,–,–
O=C(O)c1ccccc1O [Salicylic Acid],>5,–,–
O=C(O)c1cc(/N=N/c2ccc(S(=O)(=O)Nc3ccccn3)cc2)ccc1O [Sulfasalazine],0.15,–,–
CC[C@]1(O)C[C@@H]2CN(CCc3c([nH]c4ccccc34)[C@@](C(=O)OC)(c3cc4c(cc3OC)N(C)[C@H]3[C@@](O)(C(=O)OC)[C@H](OC(C)=O)[C@]5(CC)C=CCN6CC[C@]43[C@@H]65)C2)C1 [^3H-vinblastine],–,–,Apical to basolateral transport (PgP; [8]): strongly increased; basolateral to apical transport (PgP; [8]): strongly decreased; efflux transporter substrate status (PgP; conclusion from transport with and without verapamil): substrate of PgP
^14C-lactic acid [^14C-lactate],–,–,"tetracycline-inducible MCT1-mediated transport, higher than endogenous uptake in non-induced cells (MCT1 [6]): about 20%; 14C-lactate uptake (MCT1 [7]): higher levels; MCT1 substrate uptake upon induction with tetracycline (MCT1 [2]): significant increase"
